Calls of active or inactive are those of the source. The calls are words filed in the database; no cut-off is given here.

This is an account of results in ChEMBL document CHEMBL3045598, “Utilization of nicotinonitrile-2-thiol in the synthesis of new thiepino[2,3-b]pyridine derivative as an in vitro novel antitumor potent” (Med Chem Res, 2013).

This assay has as its system Ehrlich. Nature of the assay: Cytotoxicity against Mus musculus (mouse) EAC cells assessed as decrease in cell viability at 50 ug/ml by trypan blue exclusion assay. The assay is classed as functional, cell-based.
With `CCOC(=O)C1CCSc2nc(C)cc(C)c2C1=O` (stereo not drawn), the outcome was Active.
For `CCOC(=O)CCCSc1nc(C)cc(C)c1C#N` the value was “Active”.
For `Cc1cc2n(c(=S)c1C#N)CCCC(=O)C2` the value was “Active”.
